Reference: BindingDB's records for PubMed 9067310 (Institut De Recherches Servier, 1997)

What was measured:
[1] = target: T1, 5-hydroxytryptamine receptor 1A (Homo sapiens, UniProt P08908)
T1 sequence (P08908 whole entry): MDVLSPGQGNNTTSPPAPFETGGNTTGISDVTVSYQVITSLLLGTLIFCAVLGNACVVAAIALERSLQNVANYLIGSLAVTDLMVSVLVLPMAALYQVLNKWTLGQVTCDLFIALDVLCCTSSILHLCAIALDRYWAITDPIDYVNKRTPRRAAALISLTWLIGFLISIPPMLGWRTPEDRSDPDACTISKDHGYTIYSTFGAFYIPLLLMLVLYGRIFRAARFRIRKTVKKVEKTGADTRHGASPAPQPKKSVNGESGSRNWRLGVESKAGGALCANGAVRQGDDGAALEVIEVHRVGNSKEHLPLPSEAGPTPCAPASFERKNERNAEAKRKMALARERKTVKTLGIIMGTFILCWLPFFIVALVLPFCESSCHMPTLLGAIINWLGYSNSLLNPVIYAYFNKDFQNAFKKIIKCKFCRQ

D(2) dopamine receptor = D(2) dopamine receptor (Homo sapiens, UniProt P14416)
Sequence of D(2) dopamine receptor (P14416 whole entry): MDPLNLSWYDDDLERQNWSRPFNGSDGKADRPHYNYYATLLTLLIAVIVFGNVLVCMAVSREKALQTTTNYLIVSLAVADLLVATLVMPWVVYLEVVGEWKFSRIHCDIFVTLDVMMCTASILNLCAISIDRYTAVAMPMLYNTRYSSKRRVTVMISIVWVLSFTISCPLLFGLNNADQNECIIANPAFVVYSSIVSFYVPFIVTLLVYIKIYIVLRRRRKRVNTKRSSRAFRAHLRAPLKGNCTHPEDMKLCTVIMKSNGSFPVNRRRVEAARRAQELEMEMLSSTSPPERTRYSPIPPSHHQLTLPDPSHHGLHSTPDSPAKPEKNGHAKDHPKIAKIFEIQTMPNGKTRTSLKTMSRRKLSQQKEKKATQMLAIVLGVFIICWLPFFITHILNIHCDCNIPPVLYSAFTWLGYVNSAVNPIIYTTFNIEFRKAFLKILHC

With `CCCN(CCC)C1CCc2ccc(O)cc2C1` (stereo not drawn) as the molecule, how does the Ki [1] read?
Its Ki is 265 nM.

How did the Ki (D(2) dopamine receptor) turn out when `CC(C)(C)NCC(O)COc1cccc2c1SCCC2` (single isomer, unassigned; (-)) [TERTATOLOL(-)] was run?
The Ki was greater than 10 µM.

And the Ki [1]?
Its Ki is 6.7 nM.
